Laboratory results published in article PMC7269481, “ZN148 Is a Modular Synthetic Metallo-β-Lactamase Inhibitor That Reverses Carbapenem Resistance in Gram-Negative Pathogens In Vivo” (Antimicrobial Agents and Chemotherapy, 2020).
“Also recorded” adds a separate entry of the source. Like-named read-outs stand apart in the source and are kept apart here.

What was measured:
[1] = system: NDM-1-producing K. pneumoniae 50752501; test: Murine neutropenic peritonitis model; assay type: in vivo, mice
Method: The in vivo efficacy of meropenem (Mylan; Mylan Hospitals, Asker, Norway) in combination with ZN148 were evaluated in a murine neutropenic peritonitis model. Female NRMI mice (Taconic Biosciences, Lille Skensved, Denmark) were rendered neutropenic by intraperitoneal (i.p.) injection with cyclophosphamide (Baxter, Søborg, Denmark) at 4 days (200 mg/kg) and 1 day (100 mg/kg) prior to inoculation. Mice were inoculated i.p. with ∼5 × 10^6 CFU of NDM-1-producing K. pneumoniae 50752501. At 1 h postinoculation, the mice were injected subcutaneously (s.c.) in the neck region with ZN148 corresponding to 10, 33, or 100 mg/kg or vehicle. After 30 min, the mice were injected s.c. with 33 mg/kg meropenem or vehicle. Four mice were included for each treatment regime. At 5 h postinoculation, the mice were anesthetized. Blood was collected from axillary cutdown, and the mice were sacrificed. Subsequently, 2 ml of sterile saline was injected i.p., and the intraperitoneal fluid was sampled. Blood and intraperitoneal fluid were serially diluted in 0.9% NaCl and plated on blood agar plates with 5% horse blood (Statens Serum Institut, Copenhagen, Denmark) for CFU determination. Groups were analyzed with analysis of variance (ANOVA) Dunnett’s multiple-comparison test in Prism 7.04 (GraphPad Software, Inc.). P values of <0.05 were considered statistically significant. All animal experiments were approved by the National Committee of Animal Ethics, Denmark (permission 2014-15-0201-00171), and adhered to the standards of EU Directive 2010/63/EU.

[2] = target: T1, recombinant human glyoxylase II (Homo sapiens, UniProt Q16775); test: Interaction with human glyoxylase II; assay type: biochemical; conditions: 500 μM
T1 construct: purchased R&D Systems
Method: Recombinant human glyoxylase II (rHGly II; R&D Systems) was incubated with or without ZN148 (final concentrations of 125, 250, and 500 μM) for 10 and 30 min at 25°C in 50 mM Tris buffer (Merck) supplemented with 250 mM NaCl (pH 7.5). Then, 50 μl of substrate mixture containing 2 mM S-lactoylglutathione and 400 μM 5,5′-dithiobis(2-nitrobenzoic acid) (Sigma-Aldrich) was mixed with 50 μl of the preincubated rHGly II at a final enzyme concentration of 0.2 ng/μl. The initial enzymatic velocity was measured at 405 nm in 96-well plates (Thermo Fisher Scientific, Roskilde, Denmark) at 25°C in a SpectraMax Plus plate reader (Molecular Devices). EDTA (Merck) was included as a control.

VIM-2 = target: T2, VIM-2 (Escherichia coli, UniProt Q5U7L7); test: LC-ESI-MS of VIM-2 incubated with inhibitor; conditions: VIM-2 preincubated with 5 mM ZN148
T2 construct: made in house
Method: VIM-2 (8 μM final concentration) was incubated together without or with 5 mM ZN148 on ice for 30 min. Incubation was carried out in Chelex HEPES buffer (pH 7.5), and the inhibitors were diluted in Milli-Q water (Millipore/Merck) by a factor of 1,000,000 using centrifugal filters (10,000 Da; Merck). Liquid chromatography electrospray ionization Q-TOF mass spectrometry (LC-ESI-MS; Agilent Technologies, Santa Clara, CA) was performed in positive-ion mode using 0.1% formic acid in Milli-Q water and acetonitrile (VWR, Radnor, PA) at 0.4 ml/min. Spectra deconvolution was performed by using BioConfirm and MassHunter qualitative analysis (Agilent Technologies).

[3] = system: strains harboring only the class A carbapenemase KPC; test: Carbapenem potentiation, strains with only KPC; assay type: cell-based; conditions: 50 μM ZN148
E. coli with VIM (n=7) = test: Meropenem MIC distribution, E. coli with VIM; assay type: cell-based; conditions: MEM alone or +50 µM ZN148
Method: (§1) MICs of carbapenems alone and in combination with inhibitors were determined by broth microdilution according to the Clinical and Laboratory Standards Institute (CLSI) guidelines ([48]) using either premade plates (TREK Diagnostic Systems/Thermo Fisher Scientific, East Grinstead, United Kingdom) with meropenem or in-house-prepared plates with meropenem, imipenem, and doripenem. ZN148 and other inhibitors were tested at a fixed concentration of 50 μM. Cation-adjusted Mueller-Hinton medium (TREK Diagnostic Systems/Thermo Fisher Scientific; Becton Dickinson, Franklin Lakes, NJ) were used as growth medium. The plates were incubated for 20 h at 37°C. ZN148, ZN222, ZN223, ZN228, and TPA were initially tested in combination with meropenem using two indicator strains: NDM-1-producing K. pneumoniae ([49], [50]) and VIM-2-producing P. aeruginosa ([51]). The activity of ZN148 were subsequently tested against two extended strain collections: (i) in combination with meropenem against MBL-producing Enterobacterales (n = 62), MBL-producing P. aeruginosa (n = 9) and MBL- and class D carbapenemase-coproducing Enterobacterales (n = 5) from the strain collection at the Norwegian National Advisory Unit on Detection of Antimicrobial Resistance and (ii) in combination with meropenem, imipenem, and doripenem against globally collected MBL-producing E. coli (n = 87), K. pneumoniae (n = 85), P. aeruginosa (n = 52), and A. baumannii (n = 6), MBL- and class A/D carbapenemase-coproducing E. coli (n = 11), K. pneumoniae (n = 15) and A. baumannii (n = 7) at IHMA Europe, Sàrl, Switzerland. E. coli ATCC 25922 and P. aeruginosa ATCC 27853 were used as quality control strains. The MBL inhibitors were also tested for intrinsic antibacterial activity against the strains.

[4] = system: E. coli co-producing MBLs and class A/D serine carbapenemases; test: Carbapenem MIC, E. coli co-producing MBLs and class A/D serine carbapenemases; assay type: cell-based; conditions: carbapenem alone or with 50µM ZN148
Method: as §1

[5] = system: K. pneumoniae co-producing MBLs and class A/D serine carbapenemases; test: Carbapenem MIC, K. pneumoniae co-producing MBLs and class D carbapenemases; assay type: cell-based
Method: as §1

[6] = system: A. baumannii co-producing MBLs and class A/D serine carbapenemases; test: Carbapenem MIC, A. baumannii co-producing NDM-1 and class D carbapenemases; assay type: cell-based; conditions: carbapenem alone or with 50µM ZN148, one value per strain
Method: as §1

[7] = system: class A carbapenemase (KPC)-producing E. coli; test: Carbapenem MIC, class A carbapenemase-producing E. coli; assay type: cell-based; conditions: carbapenem alone or with 50µM ZN148
Method: as §1

**Q.** For `CN(C[C@H](O)[C@@H](O)[C@H](O)[C@H](O)CO)C(=O)c1ccc(CN(Cc2ccccn2)Cc2ccccn2)nc1` [ZN148], which “CFU with ZN148 alone compared to vehicle” value ([1]; ZN148 alone, s.c.) is on record?
**A.** did not result in a reduction in CFU

**Q.** What about the “CFU/ml with meropenem + higher ZN148 doses compared to meropenem alone” value ([1]; meropenem 33 mg/kg + 33 and 100 mg/kg ZN148 s.c.) of the same molecule?
**A.** same effect

**Q.** And the “CFU/ml in peritoneal fluid compared to meropenem alone” value ([1]; s.c. meropenem 33 mg/kg + ZN148 10 mg/kg, 5 h postinoculation, P < 0.0001)?
**A.** significantly lower CFU/ml

**Q.** What about the “CFU/ml in blood compared to meropenem alone” value ([1]; s.c. meropenem 33 mg/kg + ZN148 10 mg/kg, 5 h postinoculation, P < 0.01) of the same molecule?
**A.** significantly lower CFU/ml

**Q.** And the “inhibitory activity against recombinant human glyoxylase II” value [2]?
**A.** no inhibition; also recorded: no inhibitory activity

**Q.** What about the “change in mass of VIM-2” value (VIM-2) of the same molecule?
**A.** 46.2 ± 0.1 Da

**Q.** And the “potentiation of meropenem, doripenem, or imipenem” value [3]?
**A.** no potentiation

**Q.** `C[C@@H](O)[C@H]1C(=O)N2C(C(=O)O)=C(S[C@@H]3CN[C@H](C(=O)N(C)C)C3)[C@H](C)[C@H]12` [meropenem] was tested. Which “No. of strains with indicated MIC” value (E. coli with VIM (n=7); MIC 0.5 mg/L) did it give?
**A.** 1

**Q.** And the “No. of strains with indicated MIC” value (E. coli with VIM (n=7); MIC 8 mg/L)?
**A.** 3

**Q.** And the “No. of strains with indicated MIC” value (E. coli with VIM (n=7); MIC 16 mg/L)?
**A.** 2

**Q.** And the “No. of strains with indicated MIC” value (E. coli with VIM (n=7); MIC 32 mg/L)?
**A.** 1

**Q.** What about the MIC ([4]; NDM-1 + GES-2 strain) of the same molecule?
**A.** > 64 µg/mL

**Q.** And the MIC ([4]; NDM-5 + OXA-48 strain)?
**A.** > 64 µg/mL

**Q.** What about the MIC ([4]; NDM-5 + OXA-232 strains, one value per strain) of the same molecule?
**A.** > 64 µg/mL

**Q.** And the MIC ([5]; NDM + OXA-48-like strains, meropenem alone or with 50µM ZN148, one value per strain)?
**A.** > 64 µg/mL

**Q.** What about the MIC ([5]; NDM-1 + OXA-181 strain, meropenem alone or with 50µM ZN148) of the same molecule?
**A.** > 64 µg/mL

**Q.** And the MIC ([5]; NDM-5 + OXA-181 strains, carbapenem alone or with 50µM ZN148, one value per strain)?
**A.** > 64 µg/mL

**Q.** What about the MIC ([6]; NDM-1 + OXA-23-like strains) of the same molecule?
**A.** > 64 µg/mL

**Q.** What about the MIC ([6]; NDM-1 + OXA-24-like, OXA-58-like strains) of the same molecule?
**A.** > 64 µg/mL

**Q.** And the MIC ([7]; Escherichia coli, KPC-2 strains, one value per strain, read-out: MIC)?
**A.** 8 µg/mL

**Q.** And the MIC ([7]; Escherichia coli, KPC-3 strain, read-out: MIC)?
**A.** 2 µg/mL

**Q.** What about the MIC ([7]; KPC-2 strains, one value per strain, listed as MEM) of the same molecule?
**A.** 4 µg/mL
